Data set [1] is described as follows: log P by HPLC on reversed-phase column (C 18), EEC Directive 79/831 Annex V.A8. It counts as physicochemical. To be noted: for logP: HPLC, C 18, 40° C., 0.1% aqueous formic acid and acetonitrile. The protocol: In table 1, the log P values were determined in accordance with EEC Directive 79/831 Annex V.A8 by HPLC (High Performance Liquid Chromatography) on a reversed-phase column (C 18), using the method described below: Temperature: 40° C.; Mobile phases: 0.1% aqueous formic acid and acetonitrile; linear gradient from 10% acetonitrile to 90% acetonitrile. Calibration was carried out using unbranched alkan-2-ones (comprising 3 to 16 carbon atoms) with known log P values (determination of the log P values by the retention times using linear interpolation between two successive alkanones). lambda-max-values were determined using UV-spectra from 200 nm to 400 nm and the peak values of the chromatographic signals.

In another data set the test system is Puccinia recondita. Kind of data set: In vivo preventive test on Puccinia recondita (brown rust on wheat). The protocol: (§1) Example B: In Vivo Preventive Test on Puccinia Recondita (Brown Rust on Wheat) Solvent: 5% by volume of Dimethyl sulfoxide • 10% by volume of Acetone Emulsifier: 1 μL of Tween® 80 per mg of active ingredient The active ingredients are made soluble and homogenized in a mixture of Dimethyl sulfoxide/Acetone//Tween® 80 and then diluted in water to the desired concentration. The young plants of wheat are treated by spraying the active ingredient prepared as described above. Control plants are treated only with an aqueous solution of Acetone/Dimethyl sulfoxide/Tween® 80. After 24 hours, the plants are contaminated by spraying the leaves with an aqueous suspension of Puccinia recondita spores. The contaminated wheat plants are incubated for 24 hours at 20° C. and at 100% relative humidity and then for 10 days at 20° C. and at 70-80% relative humidity. The test is evaluated 11 days after the inoculation. 0% means an efficacy which corresponds to that of the control plants while an efficacy of 100% means that no disease is observed.

A further data set relates to Uromyces appendiculatus. Kind of data set: In vivo preventive test on Uromyces appendiculatus (bean rust). To be noted: for Efficacy: Table F2, dose 500 ppm; for protection: dose of 500 ppm of active ingredient. The protocol: as §1, with “F:” for “B:”, “Uromyces Appendiculatus (Bean Rust)” for “Puccinia Recondita (Brown Rust on Wheat)”, “bean” for “wheat”, “Uromyces appendiculatus” for “Puccinia recondita”

For the next data set, the system named is Alternaria brassicae. The experiment in a line: In vivo preventive test on Alternaria brassicae (leaf spot on radish). The conditions noted are these: for protection: dose of 100 and 500 ppm of active ingredient. The method, then: Example A: In Vivo Preventive Test on Alternaria Brassicae (Leaf Spot on Radish) Solvent: 5% by volume of Dimethyl sulfoxide • 10% by volume of Acetone Emulsifier: 1 μL of Tween® 80 per mg of active ingredient The active ingredients are made soluble and homogenized in a mixture of Dimethyl sulfoxide/Acetone//Tween® 80 and then diluted in water to the desired concentration. The young plants of radish are treated by spraying the active ingredient prepared as described above. Control plants are treated only with an aqueous solution of Acetone/Dimethyl sulfoxide/Tween® 80. After 24 hours, the plants are contaminated by spraying the leaves with an aqueous suspension of Alternaria brassicae spores. The contaminated radish plants are incubated for 6 days at 20° C. and at 100% relative humidity. The test is evaluated 6 days after the inoculation. 0% means an efficacy which corresponds to that of the control plants while an efficacy of 100% means that no disease is observed.

Setting [2] is: dose of 100 and 500 ppm of active ingredient.
Where [3] appears, read: dose of 500 ppm of active ingredient.

With `CC(Cc1ncc(C(F)(F)F)cc1-c1cnc2ccccc2c1)N(C(=O)c1c(C(F)F)nn(C)c1F)C1CC1` (stereo not drawn) [I.01], the logP in data set [1] stood at 3.53.

Regarding `CC(Cc1nc2ccc(C(F)(F)F)cn2c1-c1csc2ccccc12)N(C(=O)c1c(C(F)F)nn(C)c1F)C1CC1` (stereo not drawn) [I.17], in data set [1], the lipophilicity (logP) was 3.57.

For `CC(Cc1nc2ccc(C(F)(F)F)cn2c1-c1cccc2cccnc12)N(C(=O)c1c(C(F)F)nn(C)c1F)C1CC1` (stereo not drawn) [I.18], the logP in data set [1] was 2.44.

In the case of `CC(Cc1ncc(C(F)(F)F)cc1-c1cccnc1)N(C(=O)c1c(C(F)F)nn(C)c1F)C1CC1` (stereo not drawn) [CMP2, N-cyclopropyl-3-(difluoromethyl)-5-fluoro-1-methyl-N-{1-[5-(trifluoromethyl)-3,3′-bipyridin-2-yl]propan-2-yl}-1H-pyrazole-4-carboxamide, reference compound], the Efficacy with Puccinia recondita (Table B3, dose 100 ppm) was 38%; with Puccinia recondita (Table B3, dose 500 ppm), 69%; in the data set with Uromyces appendiculatus, 0%. In addition, the values for the protection result in the data set with Puccinia recondita (setting [2]) and in the data set on Uromyces appendiculatus were “less than 70%” and “no protection”, respectively.

`CC(Cc1ncc(C(F)(F)F)cc1-c1ccsc1)N(C(=O)c1c(C(F)F)nn(C)c1F)C1CC1` (stereo not drawn) [I.06, N-cyclopropyl-3-(difluoromethyl)-5-fluoro-1-methyl-N-{1-[3-(3-thienyl)-5-(trifluoro-methyl)-pyridin-2-yl]propan-2-yl}-1H-pyrazole-4-carboxamide] had a chromatographic logP in data set [1] (reversed-phase HPLC column (C 18), preparation example 1) of 4.03.

Regarding `Cc1cscc1-c1cc(C(F)(F)F)cnc1CC(C)N(C(=O)c1cn(C)nc1C(F)F)C1CC1` (stereo not drawn) [I.10], the logP in data set [1] amounted to 3.99.

Take `CC(Cc1ncc(C(F)(F)F)cc1-c1ccoc1)N(C(=O)c1c(C(F)F)nn(C)c1F)C1CC1` (stereo not drawn) [I.05]: the Efficacy came to 93% in the data set on Puccinia recondita (Table B3, dose 100 ppm); 100% with Puccinia recondita (Table B3, dose 500 ppm); 100% with Uromyces appendiculatus. Further, the protection entry is listed as “at least 90%” in the data set on Puccinia recondita (setting [2]) and “total protection” in the data set with Uromyces appendiculatus. For the same molecule, the logP in data set [1] was 3.76.

As to `CC(Cc1ncc(C(F)(F)F)cc1CN1CCCCC1)N(C(=O)c1cn(C)nc1C(F)F)C1CC1` (stereo not drawn) [I.22], the logP in data set [1] is reported as 1.67.

`CC(Cc1ncc(C(F)(F)F)cc1CN1CCCCC1)N(C(=O)c1c(C(F)F)nn(C)c1F)C1CC1` (stereo not drawn) [I.21] had a logP in data set [1] of 1.82.

Molecule `Cc1cc(C(=O)N(C(C)Cc2nc3ccc(C(F)(F)F)cn3c2-c2ccsc2)C2CC2)c(C)o1` (stereo not drawn) [I.24] gave a logP in data set [1] of 3.35.

In data set [1], `Cc1nc(C(F)F)c(C(=O)N(C(C)Cc2nc3ccc(C(F)(F)F)cn3c2-c2ccsc2)C2CC2)s1` (stereo not drawn) [I.25] displayed a logP of 3.39.

In turn, `CC(Cc1ncc(C(F)(F)F)cc1-c1ccnc2cc(Cl)ccc12)N(C(=O)c1cn(C)nc1C(F)F)C1CC1` (stereo not drawn) [I.12] showed a logP in data set [1] of 3.78.

`CC(Cc1ncc(C(F)(F)F)cc1-c1coc2ccccc12)N(C(=O)c1cn(C)nc1C(F)F)C1CC1` (stereo not drawn) [I.11] showed a logP in data set [1] of 4.11.

In the case of `CC(Cc1nc2ccc(C(F)(F)F)cn2c1-c1ccoc1)N(C(=O)c1c(C(F)F)nn(C)c1F)C1CC1` (stereo not drawn) [I.16], the Efficacy in the data set on Puccinia recondita (Table B2, dose 500 ppm) was found to be 78%; with Alternaria brassicae (Table A2, dose 100 ppm) it was 86%; in the data set with Alternaria brassicae (Table A2, dose 500 ppm), 86%. In addition, the protection result was “at least 70%” with Puccinia recondita (setting [3]) and “at least 80%” with Alternaria brassicae. The molecule further displayed a logP in data set [1] of 2.63.

As to `CC(Cc1nc2ccc(C(F)(F)F)cn2c1-c1ccsc1)N(C(=O)c1ccsc1Cl)C1CC1` (stereo not drawn) [I.23], the logP in data set [1] is on record as 4.44.

Molecule `CC(Cc1nc2ccc(C(F)(F)F)cn2c1-c1ccsc1)N(C(=O)c1nn(C)nc1C(F)F)C1CC1` (stereo not drawn) [I.20] came in with a log partition coefficient (logP) in data set [1] of 3.08.

For the molecule `CC(Cc1ncc(C(F)(F)F)cc1-c1ccnc2cc(Cl)ccc12)N(C(=O)c1c(C(F)F)nn(C)c1F)C1CC1` (stereo not drawn) [I.03], the logP in data set [1] is 4.20.

`CC(Cc1ncc(C(F)(F)F)cc1-c1cnc2ccccc2c1)N(C(=S)c1c(C(F)F)nn(C)c1F)C1CC1` (stereo not drawn) [I.13] yielded a logP in data set [1] of 3.99.

The molecule `Cc1cscc1-c1cc(C(F)(F)F)cnc1CC(C)N(C(=O)c1c(C(F)F)nn(C)c1F)C1CC1` (stereo not drawn) [I.07] registered a logP in data set [1] of 4.37.

Molecule `CC(Cc1ncc(C(F)(F)F)cc1-c1coc2ccccc12)N(C(=O)c1c(C(F)F)nn(C)c1F)C1CC1` (stereo not drawn) [I.04] gave a logP in data set [1] of 4.46.

With `CC(Cc1nc2ccc(C(F)(F)F)cn2c1-c1cccnc1)N(C(=O)c1c(C(F)F)nn(C)c1F)C1CC1` (stereo not drawn) [CMP1, N-cyclopropyl-3-(difluoromethyl)-5-fluoro-1-methyl-N-{1-[3-(pyridin-3-yl)-6-(trifluoromethyl)imidazo[1,2-a]pyridin-2-yl]propan-2-yl}-1H-pyrazole-4-carboxamide, reference compound], the Efficacy in the data set with Puccinia recondita (Table B2, dose 500 ppm) was 0%; in the data set on Alternaria brassicae (Table A2, dose 100 ppm) it was 0%; in the data set on Alternaria brassicae (Table A2, dose 500 ppm), 43%. Further, the protection result in the data set with Puccinia recondita (setting [3]) is on record as “no protection”; in the data set on Alternaria brassicae it was “less than 50%”.

Regarding `COc1ccnc(-c2c(CC(C)N(C(=O)c3c(C(F)F)nn(C)c3F)C3CC3)nc3ccc(C(F)(F)F)cn23)n1` (stereo not drawn) [I.19], the logP in data set [1] came to 2.44.

In the case of `CC(Cc1ncc(C(F)(F)F)cc1-c1csc2ccccc12)N(C(=S)c1c(C(F)F)nn(C)c1F)C1CC1` (stereo not drawn) [I.14], in data set [1], the logP is 5.32.

`CC(Cc1ncc(C(F)(F)F)cc1-c1csc2ccccc12)N(C(=O)c1c(C(F)F)nn(C)c1F)C1CC1` (stereo not drawn) [I.02]: the logP in data set [1] is reported as 4.72.

Molecule `CC(Cc1nc2ccc(C(F)(F)F)cn2c1-c1ccsc1)N(C(=O)c1c(C(F)F)nn(C)c1F)C1CC1` (stereo not drawn) [I.15] had a logP in data set [1] of 2.8.

Regarding `CC(Cc1ncc(C(F)(F)F)cc1-c1ccco1)N(C(=O)c1cn(C)nc1C(F)F)C1CC1` (stereo not drawn) [I.08], in data set [1], the logP was 3.55.

`CC(Cc1ncc(C(F)(F)F)cc1-c1ccsc1)N(C(=O)c1cn(C)nc1C(F)F)C1CC1` (stereo not drawn) [I.09] came in with a logP in data set [1] of 3.67.
